According to patent publication EP0429333B1, “Process for producing oxazopyrroloquinolines, novel oxazopyrroloquinolines, and use of oxazopyrroloquinolines” (priority 1989, dated 1991):

How the values were obtained:
Acute toxicity test = conditions: mouse, in vivo, ip
Experimental: (§1) (1) Acute toxicity test: • (i) To male SPF-ICR mice of 5 weeks old (supplied by Charles River Co.) were intraperitoneally administered PQQ·2Na and OPQs in the dosages of 20, 40, 80, 160 and 200 mg/kg body weight of mouse, respectively and they were bred at 25°C for 14 days. OPQ, 1-methylpropyl OPQ, 2-methylthioethyl OPQ, and benzyl OPQ were used as the OPQs. One group consisted of 8 mice. […] One group consisted of 8 mice. […] They were bred at 25°C for 14 days. One group consisted of eight mice. […] (2) Toxicity to kidney (i) Toxicity to kidney determined by urine examination: In the same manner as in the acute toxicity test, PQQ·2Na and OPQs were respectively intraperitoneally administered to mice and these mice were bred. Urine was collected every day and concentration of glucose in urine was obtained using Uristex II (manufactured by Miles·Sankyo Co.). […]

male SPF-ICR mice = test: Acute toxicity test
Experimental: as §1

kidney = test: Toxicity to kidney determined by blood examination; type: in vivo, mice; conditions: serum
Outline: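 One day after dosing, mice fasted 18 h with water only, then blood taken. Serum glucose, urea nitrogen and creatinine measured by dry-chemistry slides; values are means of eight mice.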

T cell = test: Test on T cell blast transformation reaction (2), compound added to spleen cell culture; type: cell-based, C3H/He mice; conditions: for Relative activity (%): Concanavalin A 1.0 µg/ml, without compound = 100
Experimental: Cells of spleen were obtained in the same manner as in Example 38 except that OPQ was not administered using five C3H/He mice (male, 7 weeks old, average body weight of 20 g, supplied by Japan Charles Liver Co.).
Then, the cells were suspended in RPMI medium at 4 x 10^6 cells/ml and the suspension was put in a flat bottom microplate of 96 holes. Culture was carried out in the air containing 5 % of CO2 at 37°C using 1.0 µg/ml of concanavalin A as mitogen with addition of 0.5 or 2.0 µg/ml of OPQ. After 63 hours from starting of culture, ^3H-thymidine was added at 2.5 µCi/ml and culture was carried out for further 9 hours. Thereafter, cells were gathered on a glass fiber filter by cell harvester and ^3H on the filter was measured by a liquid scintillation counter.
As control, same four cultures were conducted under respective conditions without adding concanavalin A or OPQ. Values in the table are average values of intake amount (cpm) of ^3H in culture under four same conditions. Activity acceleration effect of OPQ was not recognized when concanavalin A was not added, but activity acceleration effect of OPQ was recognized when concanavalin A was added.
In Examples 36 - 40, macrophage activity was examined according to chemotaxis of peritoneal macrophage (literature 1) and activity of T cell and that of B cell were examined according to blast transformation reaction using concanavalin A and lipopolysaccharide, (LPS) as mitogen (literature 2). Literature 1: "Function of Macrophage and Method of Measurement of Function", pages 61-65 1985), edited by Educational Committee of Japan Bacteriological Society and published from Saikon Shuppan Co.) Literature 2: "New Method of Searching of Function of Lymphocytes", pages 350-355 (1987) edited by Junichi Yada and Michio Fujiwara and published from Chugai Igaku Co.

O=C(O)c1cc(C(=O)O)c2c(n1)c1ncoc1c1cc(C(=O)O)[nH]c12 [OPQ, oxazopyrroloquinoline]
LD50 at 336 h (Acute toxicity test): ~1000 mg/kg | death of mice (male SPF-ICR mice; 0.1 - 0.4 g/kg intraperitoneally, 8 mice per group, 14 days): All mice survived | death of mice (male SPF-ICR mice; 0.8 g/kg intraperitoneally, 8 mice, 14 days): two mice died | death of mice (male SPF-ICR mice; 1.2 g/kg intraperitoneally, 8 mice, 14 days): six mice died | death of mice (male SPF-ICR mice; mouse, in vivo): no mice died | death of mice (male SPF-ICR mice; orally 1.0 g, 1.5 g or 2.0 g/kg mouse, 8 mice per group, 14 days): No mice died | Creatinine (kidney; 40 mg/kg mouse intraperitoneally, Table 2, no administration 0.8): 0.7 mg/dL | Urea nitrogen (kidney; 40 mg/kg mouse intraperitoneally, Table 2, no administration 24): 25 mg/dL | Glucose (kidney; 40 mg/kg mouse intraperitoneally, Table 2, no administration 78): 90 mg/dL | Creatinine (kidney; 80 mg/kg mouse intraperitoneally, Table 2, no administration 0.8): 0.8 mg/dL | Urea nitrogen (kidney; 80 mg/kg mouse intraperitoneally, Table 2, no administration 24): 23 mg/dL | Glucose (kidney; 80 mg/kg mouse intraperitoneally, Table 2, no administration 78): 86 mg/dL | Creatinine (kidney; 150 mg/kg mouse intraperitoneally, Table 3, no administration 0.7): 0.8 mg/dL | Urea nitrogen (kidney; 150 mg/kg mouse intraperitoneally, Table 3, no administration 28): 32 mg/dL | Glucose (kidney; 150 mg/kg mouse intraperitoneally, Table 3, no administration 105): 106 mg/dL | Creatinine (kidney; 160 mg/kg mouse intraperitoneally, Table 2, no administration 0.8): 0.7 mg/dL | Urea nitrogen (kidney; 160 mg/kg mouse intraperitoneally, Table 2, no administration 24): 27 mg/dL | Glucose (kidney; 160 mg/kg mouse intraperitoneally, Table 2, no administration 78): 90 mg/dL | Creatinine (kidney; 200 mg/kg mouse intraperitoneally, Table 2, no administration 0.8): 0.8 mg/dL | Urea nitrogen (kidney; 200 mg/kg mouse intraperitoneally, Table 2, no administration 24): 28 mg/dL | Glucose (kidney; 200 mg/kg mouse intraperitoneally, Table 2, no administration 78): 85 mg/dL | Creatinine (kidney; 300 mg/kg mouse intraperitoneally, Table 3, no administration 0.7): 0.8 mg/dL | Urea nitrogen (kidney; 300 mg/kg mouse intraperitoneally, Table 3, no administration 28): 29 mg/dL | Glucose (kidney; 300 mg/kg mouse intraperitoneally, Table 3, no administration 105): 80 mg/dL | Creatinine (kidney; 400 mg/kg mouse intraperitoneally, Table 3, no administration 0.7): 0.8 mg/dL | Urea nitrogen (kidney; 400 mg/kg mouse intraperitoneally, Table 3, no administration 28): 30 mg/dL | Glucose (kidney; 400 mg/kg mouse intraperitoneally, Table 3, no administration 105): 94 mg/dL | Creatinine (kidney; 600 mg/kg mouse intraperitoneally, Table 3, no administration 0.7): 0.8 mg/dL | Urea nitrogen (kidney; 600 mg/kg mouse intraperitoneally, Table 3, no administration 28): 34 mg/dL | Glucose (kidney; 600 mg/kg mouse intraperitoneally, Table 3, no administration 105): 74 mg/dL | Relative activity (%) (T cell; 0.5 µg/ml added to culture): 146% | intake amount (cpm) of ^3H (T cell; 0.5 µg/ml added to culture, concanavalin 0 µg/ml, without compound 2077): 1946 cpm | intake amount (cpm) of ^3H (T cell; 0.5 µg/ml added to culture, concanavalin 1.0 µg/ml, without compound 89091): 130775 cpm | Relative activity (%) (T cell; 2.0 µg/ml added to culture): 130% | intake amount (cpm) of ^3H (T cell; 2.0 µg/ml added to culture, concanavalin 0 µg/ml, without compound 2077): 2031 cpm | intake amount (cpm) of ^3H (T cell; 2.0 µg/ml added to culture, concanavalin 1.0 µg/ml, without compound 89091): 116093 cpm
